{"source": "patent US20180289009A1", "about": "(Synexis LLC, priority 2015, published 2018)", "key": {"[1]": {"tested_on": "Feline calicivirus", "settings": "DHP gas 0.6 ppm; ~1 × 10^8 per inch^2"}, "[2]": {"tested_on": "Geobacillus stearothermophilus spores"}, "[3]": {"tested_on": "MS2 bacteriophage", "settings": "DHP gas 0.6 ppm; 1.25 × 10^3 per inch^2"}, "[4]": {"tested_on": "Enterococcus faecalis", "settings": "DHP gas 0.5-1.0 ppm"}, "[5]": {"tested_on": "mold spoilage on fresh strawberries", "settings": "DHP gas 0.1-0.4 ppm; 5 days; 73-78° F.; humidity 40-65%", "description": "Experiments are conducted in a 1584 cubic foot test room. The temperature of test room is maintained between 73° F. and 78° F., and the humidity of the ambient air is between 40% and 65%. […] After the 5-day incubation period, the strawberries are evaluated for the presence of mold spoilage."}, "[6]": {"tested_on": "Aspergillus Niger (vegetative)", "settings": "vegetative form; DHP gas 0.3 ppm; 2.2 × 10^4 per inch^2"}, "[7]": {"tested_on": "MRSA"}, "[8]": {"tested_on": "H1N1 virus", "settings": "DHP gas 0.6 ppm, 1.12 × 10^6 per inch^2"}, "[9]": {"tested_on": "Streptococcus pyogenes", "settings": "DHP gas 0.6 ppm; 5 × 10^4 per inch^2"}, "[10]": {"tested_on": "C. difficile (spores)", "settings": "DHP gas 0.5-1.0 ppm, 3.78 × 10^6 per inch^2"}, "[11]": {"settings": "Log2 spore strip, 72 hours exposure to DHP gas at about 0.3 ppm"}, "[12]": {"settings": "Log 2 spore strip, 144 hours exposure to DHP gas at about 0.3 ppm"}, "[13]": {"settings": "Log 2 spore strip, 216 hours exposure to DHP gas at about 0.3 ppm"}, "[14]": {"settings": "Log2 spore strip, 288 hours exposure to DHP gas at about 0.3 ppm"}, "[15]": {"settings": "Log3 spore strip, 40 hours exposure to DHP gas at about 0.3 ppm"}, "[16]": {"settings": "Log3 spore strip, 47.75 hours exposure to DHP gas at about 0.3 ppm"}, "[17]": {"settings": "Log3 spore strip, 60.2 hours exposure to DHP gas at about 0.3 ppm"}, "[18]": {"settings": "Log3 spore strip, 67.5 hours exposure to DHP gas at about 0.3 ppm"}, "[19]": {"settings": "Log3 spore strip, 100 hours exposure to DHP gas at about 0.3 ppm"}, "[20]": {"settings": "Log 3 spore strip, 144 hours exposure to DHP gas at about 0.3 ppm"}, "[21]": {"settings": "Log 3 spore strip, 216 hours exposure to DHP gas at about 0.3 ppm"}, "[22]": {"settings": "Log4 spore strip, 121.4 hours exposure to DHP gas at about 0.3 ppm"}, "[23]": {"settings": "Log4 spore strip, 192 hours exposure to DHP gas at about 0.3 ppm"}, "[24]": {"settings": "Log 4 spore strip, 216 hours exposure to DHP gas at about 0.3 ppm"}, "[25]": {"settings": "Log4 spore strip, 223.5 hours exposure to DHP gas at about 0.3 ppm"}, "[26]": {"settings": "Log4 spore strip, 288 hours exposure to DHP gas at about 0.3 ppm"}}, "note": "Where “and” joins values, the source holds several entries; their conditions need not be identical. Identical values can stand only once. Like-named read-outs stand apart in the source and are kept apart here."}
{"smiles": "OO", "note": "[DHP gas, hydrogen peroxide]", "values": [{"measurement": "Time to 90% reduction", "setting": "[1]", "result": "<2", "unit": "h"}, {"measurement": "Biological Change", "setting": "[2]; [11]", "result": "turbidity"}, {"measurement": "Color Change within 24 hour incubation", "setting": "[2]; [11]", "result": "light yellow"}, {"measurement": "Time of Change", "setting": "[2]; [11]", "result": 15, "unit": "h"}, {"measurement": "Color Change within 24 hour incubation", "setting": "[2]; [12]", "result": "very dark orange"}, {"measurement": "Time of Change", "setting": "[2]; [12]", "result": 22, "unit": "h"}, {"measurement": "Color Change within 24 hour incubation", "setting": "[2]; Log 2 spore strip, 166.5 hours exposure to DHP gas at about 0.3 ppm", "result": "may have changed"}, {"measurement": "Biological Change", "setting": "[2]; [13]", "result": "no turbidity"}, {"measurement": "Color Change within 24 hour incubation", "setting": "[2]; [13]", "result": "very dark orange"}, {"measurement": "Time of Change", "setting": "[2]; [13]", "result": 22, "unit": "h"}, {"measurement": "Biological Change", "setting": "[2]; [14]", "result": "no turbidity"}, {"measurement": "Color Change within 24 hour incubation", "setting": "[2]; [14]", "result": "very light orange"}, {"measurement": "Time of Change", "setting": "[2]; [14]", "result": 17, "unit": "h"}, {"measurement": "Biological Change", "setting": "[2]; [15]", "result": "Heavy turbidity"}, {"measurement": "Color Change within 24 hour incubation", "setting": "[2]; [15]", "result": "+ Light orange"}, {"measurement": "Color Change within 24 hour incubation", "setting": "[2]; Log3 spore strip, 42 hours exposure to DHP gas at about 0.3 ppm", "result": "+"}, {"measurement": "Color Change within 24 hour incubation", "setting": "[2]; Log3 spore strip, 45.5 hours exposure to DHP gas at about 0.3 ppm", "result": "+"}, {"measurement": "Biological Change", "setting": "[2]; [16]", "result": "Less turbidity"}, {"measurement": "Color Change within 24 hour incubation", "setting": "[2]; [16]", "result": "+ Dark orange"}, {"measurement": "Biological Change", "setting": "[2]; [17]", "result": "Heavy turbidity"}, {"measurement": "Color Change within 24 hour incubation", "setting": "[2]; [17]", "result": "+"}, {"measurement": "Color Change within 24 hour incubation", "setting": "[2]; Log3 spore strip, 64.2 hours exposure to DHP gas at about 0.3 ppm", "result": "+"}, {"measurement": "Color Change within 24 hour incubation", "setting": "[2]; Log3 spore strip, 64.5 hours exposure to DHP gas at about 0.3 ppm", "result": "+"}, {"measurement": "Biological Change", "setting": "[2]; [18]", "result": "Almost no turbidity"}, {"measurement": "Color Change within 24 hour incubation", "setting": "[2]; [18]", "result": "+"}, {"measurement": "Color Change within 24 hour incubation", "setting": "[2]; Log3 spore strip, 70 hours exposure to DHP gas at about 0.3 ppm", "result": "+"}, {"measurement": "Color Change within 24 hour incubation", "setting": "[2]; Log3 spore strip, 85.1 hours exposure to DHP gas at about 0.3 ppm", "result": "+"}, {"measurement": "Color Change within 24 hour incubation", "setting": "[2]; Log3 spore strip, 89 hours exposure to DHP gas at about 0.3 ppm", "result": "+"}, {"measurement": "Color Change within 24 hour incubation", "setting": "[2]; [19]", "result": "+"}, {"measurement": "Time of Change", "setting": "[2]; [19]", "result": "16 h and 22 to 24 h"}, {"measurement": "Biological Change", "setting": "[2]; [20]", "result": "no turbidity"}, {"measurement": "Color Change within 24 hour incubation", "setting": "[2]; [20]", "result": "very light orange"}, {"measurement": "Time of Change", "setting": "[2]; [20]", "result": 16.5, "unit": "h"}, {"measurement": "Color Change within 24 hour incubation", "setting": "[2]; Log 3 spore strip, 166.5 hours exposure to DHP gas at about 0.3 ppm", "result": "−"}, {"measurement": "Biological Change", "setting": "[2]; [21]", "result": "no turbidity"}, {"measurement": "Color Change within 24 hour incubation", "setting": "[2]; [21]", "result": "very dark orange"}, {"measurement": "Time of Change", "setting": "[2]; [21]", "result": 22, "unit": "h"}, {"measurement": "Biological Change", "setting": "[2]; [22]", "result": "almost no turbidity"}, {"measurement": "Color Change within 24 hour incubation", "setting": "[2]; [22]", "result": "−"}, {"measurement": "Time of Change", "setting": "[2]; [22]", "result": "8 to 15 h and 15 h"}, {"measurement": "Time of Change", "setting": "[2]; Log4 spore strip, 144 hours exposure to DHP gas at about 0.3 ppm", "result": "17 h and 16.5 h"}, {"measurement": "Color Change within 24 hour incubation", "setting": "[2]; Log 4 spore strip, 166.5 hours exposure to DHP gas at about 0.3 ppm", "result": "−"}, {"measurement": "Color Change within 24 hour incubation", "setting": "[2]; Log4 spore strip, 168 hours exposure to DHP gas at about 0.3 ppm", "result": "−"}, {"measurement": "Color Change within 24 hour incubation", "setting": "[2]; [23]", "result": "−"}, {"measurement": "Time of Change", "setting": "[2]; [23]", "result": 15, "unit": "h"}, {"measurement": "Biological Change", "setting": "[2]; [24]", "result": "no turbidity"}, {"measurement": "Color Change within 24 hour incubation", "setting": "[2]; [24]", "result": "very dark orange"}, {"measurement": "Time of Change", "setting": "[2]; [24]", "result": 22, "unit": "h"}, {"measurement": "Biological Change", "setting": "[2]; [25]", "result": "no turbidity"}, {"measurement": "Time of Change", "setting": "[2]; [25]", "result": "14 h and 22 h"}, {"measurement": "Biological Change", "setting": "[2]; [26]", "result": "no turbidity"}, {"measurement": "Color Change within 24 hour incubation", "setting": "[2]; [26]", "result": "darker orange"}, {"measurement": "Time of Change", "setting": "[2]; [26]", "result": 17, "unit": "h"}, {"measurement": "Time to 90% reduction", "setting": "[3]", "result": "<4", "unit": "h"}, {"measurement": "Time to 90% reduction", "setting": "[4]", "result": "<2", "unit": "h"}, {"measurement": "Mold spoilage after 5-day incubation", "setting": "[5]", "result": "no signs of mold spoilage"}, {"measurement": "Time to 90% reduction", "setting": "[6]", "result": 7, "unit": "h"}, {"measurement": "Time to 90% reduction", "setting": "[7]; soil load not stated", "result": "under 5 hours"}, {"measurement": "Time to 90% reduction", "setting": "[7]; with soil load, DHP gas 0.6 ppm, 0.5 × 10^5 per inch^2", "result": 4.6, "unit": "h"}, {"measurement": "Time to 90% reduction", "setting": "[7]; without soil load, DHP gas 0.6 ppm, 1 × 10^5 per inch^2", "result": 2.6, "unit": "h"}, {"measurement": "Time to 90% reduction", "setting": "[8]", "result": "less than 30 minutes"}, {"measurement": "Time to 90% reduction", "setting": "[8]; listed as DHP Gas", "result": 22.9, "unit": "min"}, {"measurement": "Time to 90% reduction", "setting": "[9]", "result": "<4", "unit": "h"}, {"measurement": "Reduction at 24 hours", "setting": "[10]", "result": 70.4, "unit": "% at 24"}]}
